Consider 1 molecule from article PMC6978697 (The Journal of Pharmacology and Experimental Therapeutics, 2020).

The target in this test is T1, HA-DOPr (HA-tagged δ opioid receptor) (Homo sapiens, UniProt P41143).
T1 construct: gene OPRD1; full-length wild type, HA-tagged
Put plainly: [3H]-diprenorphine competition, HEK293 membranes. It is filed as binding. The following applies: read-out: [^3H]-Diprenorphine / pKi (converted). From the text: [3H]-diprenorphine competition, HEK293 membranes on HA-DOPr (HA-tagged δ opioid receptor)

T1 sequence (P41143 whole entry, looked up): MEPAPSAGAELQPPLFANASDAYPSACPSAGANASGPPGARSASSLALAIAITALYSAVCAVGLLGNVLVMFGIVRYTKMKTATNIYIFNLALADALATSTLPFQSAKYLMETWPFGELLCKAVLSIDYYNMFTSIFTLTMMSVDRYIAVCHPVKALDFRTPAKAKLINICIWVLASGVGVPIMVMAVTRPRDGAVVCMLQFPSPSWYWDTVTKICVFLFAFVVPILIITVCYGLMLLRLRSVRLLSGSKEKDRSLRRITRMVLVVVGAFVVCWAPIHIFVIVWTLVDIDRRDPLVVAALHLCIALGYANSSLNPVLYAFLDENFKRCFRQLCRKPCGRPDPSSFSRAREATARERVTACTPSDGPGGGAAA

Turning to `CN(C)C(=O)c1ccc(C(=C2CCN(Cc3cncs3)CC2)c2cccc(C(N)=O)c2)cc1` [PN6047, 3-[[4-(dimethylcarbamoyl)phenyl]-[1-(thiazol-5-ylmethyl)-4-piperidylidene]methyl]benzamide], the Ki is 56.2 nM.
